# Source: patent US20120225031A1, “SPHINGOSINE-1-PHOSPHATE RECEPTOR AGONISTS IN THE TREATMENT OF DEMYELINATING DISORDERS” (priority 2002, published 2012)
# B1: INFβ: Recombinant mouse interferon β (Calbiochem/Biosciences), dissolved in saline, given by intraperitoneal injection (protein, UniProt P01575 22-182, looked up)
# Interferon beta: INYKQLQLQERTNIRKCQELLEQLNGKINLTYRADFKIPMEMTEKMQKSYTAFAIQEMLQNVFLVFRNNFSSTGWNETIVVRLLDELHQQTVFLKTVLEEKQEERLTWEMSSTALHLKSYYWRVQRYLKLMKYNSYAWMVVRAEIFRNFLIIRRLTRNFQN
# Legend:
# [1] = Acute toxicity (LD50) in monkeys; settings: monkey, in vivo, po
# [2] = Acute toxicity (LD50) in rats; settings: rat, in vivo, po
# [3] = test system: DA rat model of chronic-protracted EAE; assay: Optic neuritis in the DA rat model of chronic-protracted EAE; assay type: in vivo; settings: for disease progression (clinical EAE): 0.3 mg/kg p.o. once a day for 2 weeks, therapeutic treatment from about day 12, compared to vehicle-treated controls; for development of EAE symptoms / disease-related weight loss: suboptimal dose <0.1 mg/kg p.o. combined with a mTOR inhibitor (<1 mg/kg p.o.), therapeutic dosing
# Description: A.2 In Vivo: Optic Neuritis in the DA Rat Model of Chronic-Protracted EAE
# Ocular pathologic manifestations such as optic neuritis (neuromyelitis optica) are frequent in multiple sclerosis and often precede or accompany plaque formation in the brain white matter. Ocular areas, especially the optic chiasma, also are important targets in demyelinating forms of EAE. In such EAE models, functional disability caused by demyelination of the optic nerve can be assessed by electrophysiological methods, such as visual evoked cortical potentials and electroretinogram, in conjunction with morphological analysis of the ocular tissue.
# Immunization: On day 0, female DA rats are immunized by a single intradermal injection at the tail base with 100-200 μl inoculum containing a recombinant encephalitogenic peptide, e.g. myelin oligodendrocyte glycoprotein, or a homogenate of syngeneic central nervous system tissue emulsified in one part CFA (volume:volume). Neurologic symptoms develop by 10 days post-immunization, and clinical grades of EAE are assessed using a scale of 0 to 4. Therapeutic treatment with the test compound starts when the disease is fully established, usually on day 12, and continues for 2 weeks.
# [4] = test system: SJL/J mouse model of chronic progressive EAE; assay: SJL/J mouse model of chronic progressive EAE; assay type: in vivo
# Procedure: A.1 In Vivo: SJL/J Mouse Model of Chronic Progressive EAE
# The disease course in this animal model shares some common features with SP- and PR-MS. Immunization: On day 0 female SJL/J mice are immunized (subcutaneous flank injection) with 200 μl inoculum containing 500 μg bovine myelin basic protein (MBP) emulsified in complete Freund's adjuvant (CFA). On day 9 mice are boosted by a second MBP injection and an additional intravenous adjuvant injection consisting of 200 ng B. pertussis toxin. A final Pertussis injection is given on day 11. […] This is followed by a recovery phase starting around day 25, during which time mice remain symptom-free for about 20 days. Subsequently, by days 45-47, approximately 50% of the animals go into the progressive phase of the disease. Therefore, therapeutic treatment with test compounds starts on day 21 when the disease is fully established and continues until day 70, unless stated otherwise. Recombinant mouse interferon β (INFβ Calbiochem/Biosciences) is dissolved in saline and given by intraperitoneal injection 3× per week. Compound (a), e.g. Compound A or B, is diluted in water and given p.o. 5× per week by gavage. Mice in the vehicle control group are MBP-immunized and treated with water.
# Each experimental group consists of 10 mice, which are examined daily for clinical EAE symptoms. Disease incidence and the day of EAE onset also are recorded. Clinical grades of EAE are assessed using a scale from 0 to 3. Any disease-related mortality which occurs after starting drug treatment is recorded with a maximum score of 3.
# Lewis rat model of EAE = assay: Lewis rat model of EAE, prophylactic treatment regimen; assay type: in vivo; settings: combination with a mTOR inhibiter at similar doses, EAE induced by intradermal guinea pig neuroantigen
# [5] = 0.6 mg/kg p.o. 5x per week in combination with INFβ (10 000 IU i.p. 3x per week), therapeutic treatment from day 21, days 45-75, compared to vehicle-treated controls
Molecule,LD50 [1] [mg/kg],LD50 [2] [mg/kg],disease progression (clinical EAE) [3],development of EAE symptoms [3],disease-related weight loss [3],"disease progression (clinical EAE) [4, 5]",disease onset (Lewis rat model of EAE),"disease progression (clinical EAE) ([4]; INFβ alone, 10 000 IU 3x/week i.p., afterwards full EAE response indistinguishable from vehicle-treated controls by day 68 onwards)"
"CCCCCCCCc1ccc(CCC(N)(CO)CO)cc1.Cl [Compound A, 2-amino-2-[2-(4-octylphenyl)ethyl]propane-1,3-diol]",> 10,> 10,prevents disease progression for at least 2 months,curtail development of EAE symptoms,prevent disease-related weight loss,prevents disease progression for one month,prevent disease onset,–
"NC(CO)(CO)CCc1ccc(C(=O)CCCCc2ccccc2)cc1 [Compound B, 2-amino-2-{2-[4-(1-oxo-5-phenylpentyl)phenyl]ethyl}propane-1,3-diol]",–,–,prevents disease progression for at least 2 months,curtail development of EAE symptoms,prevent disease-related weight loss,prevents disease progression for one month,prevent disease onset,–
B1,–,–,–,–,–,–,–,only marginally inhibits disease progression for about 1 week
